Test results published in patent US11420970B1 (NOVARTIS AG, priority 2019, dated 2022).

Legend:
[1] = target: NSD2 [1-1365] (Homo sapiens (Human), UniProt O96028); assay: LC-MS/MS-based NSD2 enzymatic assay (SAH production); type: biochemical; conditions: NSD2 biochemical activity, class symbols; read-out: NSD2 IC50
Method in brief: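 Full-length NSD2 [1-1365] (8 nM final) with 1 μM SAM and 400 nM mouse-liver nucleosome in Tris pH 8.0 buffer; inhibitor preincubated 20 min with enzyme/SAM before nucleosome addition. Reaction 90 min at room temperature, TFA-quenched; SAH quantified by LC-MS/MS against d4-SAH internal standard and SAH standard curve.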

[2] = tested on: cellular H3K36me2 level in thyroid carcinoma cell line CGTH-W-1 (NSD2 E1099K); assay: H3K36me2 cellular ELISA assay in CGTH-W-1 line; type: cell-based; conditions: Homo sapiens, CGTH-W-1, 72 h, read-out: H3K36me2 ELISA in CGTH-W-1
Method in brief: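 CGTH-W-1 thyroid carcinoma cells (NSD2 E1099K gain-of-function) exposed to compound for 72 hours. Histone-bound plates probed for H3K36me2 and total H3 by chemiluminescent ELISA. Viability checked on a parallel plate with CellTiter-Glo.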

[3] = tested on: cellular H3K36me2 level in multiple myeloma cell line KMS11 (t(4;14)+); assay: H3K36me2 cellular ELISA assay in KMS11-Par line; type: cell-based; conditions: Homo sapiens, KMS-11; KMS11-Par line (t(4;14)+), 72 hours treatment, ELISA; read-out: H3K36me2 ELISA in KMS11-Par
Method in brief: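 KMS11 cells were seeded a day ahead at 1,250 per well in Opti-MEM with B-27/N2, then treated with compound for 72 h. Histones were acid-extracted with 0.4M HCl, and H3K36me2 and total H3 were read by chemiluminescent ELISA. Viability was checked with CellTiter-Glo on a parallel plate in maintenance media.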

Sequence of NSD2 [1-1365] (O96028 whole entry): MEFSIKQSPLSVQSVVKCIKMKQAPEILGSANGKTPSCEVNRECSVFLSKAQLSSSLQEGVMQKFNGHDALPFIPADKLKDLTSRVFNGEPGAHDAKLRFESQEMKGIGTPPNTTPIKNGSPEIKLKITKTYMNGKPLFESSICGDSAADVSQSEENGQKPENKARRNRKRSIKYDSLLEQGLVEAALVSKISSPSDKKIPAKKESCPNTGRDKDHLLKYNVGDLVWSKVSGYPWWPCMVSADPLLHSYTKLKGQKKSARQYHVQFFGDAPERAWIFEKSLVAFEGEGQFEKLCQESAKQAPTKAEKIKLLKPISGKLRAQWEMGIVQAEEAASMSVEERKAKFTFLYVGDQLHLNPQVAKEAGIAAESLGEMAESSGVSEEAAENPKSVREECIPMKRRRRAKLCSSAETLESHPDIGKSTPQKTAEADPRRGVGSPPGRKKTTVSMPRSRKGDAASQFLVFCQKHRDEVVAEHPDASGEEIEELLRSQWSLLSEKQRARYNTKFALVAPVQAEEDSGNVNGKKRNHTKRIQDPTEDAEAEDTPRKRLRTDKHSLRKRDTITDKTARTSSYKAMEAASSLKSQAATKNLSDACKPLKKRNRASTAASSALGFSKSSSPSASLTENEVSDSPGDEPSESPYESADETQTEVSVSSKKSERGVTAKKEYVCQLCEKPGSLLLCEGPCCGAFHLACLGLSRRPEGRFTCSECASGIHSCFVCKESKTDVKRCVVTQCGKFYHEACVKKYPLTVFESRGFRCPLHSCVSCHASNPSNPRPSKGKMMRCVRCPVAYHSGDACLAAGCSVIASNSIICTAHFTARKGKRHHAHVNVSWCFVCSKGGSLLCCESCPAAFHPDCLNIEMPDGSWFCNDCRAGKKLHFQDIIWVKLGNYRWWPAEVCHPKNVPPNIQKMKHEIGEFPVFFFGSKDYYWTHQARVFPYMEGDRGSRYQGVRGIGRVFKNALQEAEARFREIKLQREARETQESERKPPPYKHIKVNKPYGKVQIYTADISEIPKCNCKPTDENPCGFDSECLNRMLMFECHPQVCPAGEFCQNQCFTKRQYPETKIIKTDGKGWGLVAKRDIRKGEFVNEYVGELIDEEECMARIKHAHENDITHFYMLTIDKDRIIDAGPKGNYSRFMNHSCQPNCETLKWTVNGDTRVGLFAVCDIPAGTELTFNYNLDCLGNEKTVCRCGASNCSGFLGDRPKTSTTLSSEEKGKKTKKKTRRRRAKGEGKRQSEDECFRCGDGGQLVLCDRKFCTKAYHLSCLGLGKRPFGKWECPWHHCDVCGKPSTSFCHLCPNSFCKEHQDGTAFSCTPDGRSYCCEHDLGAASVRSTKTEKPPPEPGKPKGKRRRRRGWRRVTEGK

COc1ccc(-c2cc(Cn3cnc4c(N)ncnc43)c(N3CCC[C@](N)([C@H](O)C(F)F)C3)cn2)cc1Cl [Example 125, (S)-1-((R)-3-amino-1-(4-((6-amino-9H-purin-9-yl)methyl)-6-(3-chloro-4-methoxyphenyl)pyridin-3-yl)piperidin-3-yl)-2,2-difluoroethan-1-ol]
IC50 [1]: 1 to 10 nM | IC50 [2]: 775 nM | IC50 [3]: 3950 nM

Cc1ccc(-c2cc(Cn3cnc4c(N)ncnc43)c(N3CCC[C@](N)([C@@H](O)C(F)F)C3)cn2)c(C)c1 [Example 126, (R)-1-((R)-3-amino-1-(4-((6-amino-9H-purin-9-yl)methyl)-6-(2,4-dimethylphenyl)pyridin-3-yl)piperidin-3-yl)-2,2-difluoroethan-1-ol]
IC50 [1]: 1 to 10 nM | IC50 [2]: 469 nM | IC50 [3]: 1110 nM

COc1ccc(-c2cc(Cn3cnc4c(N)ncnc43)c(N3CCC[C@](N)([C@H](O)C(F)F)C3)cn2)cc1F [Example 127, (S)-1-((R)-3-amino-1-(4-((6-amino-9H-purin-9-yl)methyl)-6-(3-fluoro-4-methoxyphenyl)pyridin-3-yl)piperidin-3-yl)-2,2-difluoroethan-1-ol]
IC50 [1]: 1 to 10 nM | IC50 [2]: 262 nM | IC50 [3]: 901 nM

Nc1ncnc2c1ncn2Cc1cc(-c2cc(F)c(OC(F)F)cc2F)ncc1N1CCC[C@](N)([C@H](O)C(F)F)C1 [Example 128, (S)-1-((R)-3-amino-1-(4-((6-amino-9H-purin-9-yl)methyl)-6-(4-(difluoromethoxy)-2,5-difluorophenyl)pyridin-3-yl)piperidin-3-yl)-2,2-difluoroethan-1-ol]
IC50 [1]: 1 to 10 nM | IC50 [2]: 60 nM | IC50 [3]: 693 nM

Nc1ncnc2c1ncn2Cc1cc(C2CCCCC2)ncc1N1CCC[C@](N)([C@@H](O)C(F)F)C1 [Example 130, (R)-1-((R)-3-amino-1-(4-((6-amino-9H-purin-9-yl)methyl)-6-cyclohexylpyridin-3-yl)piperidin-3-yl)-2,2-difluoroethan-1-ol]
IC50 [1]: 1 to 10 nM | IC50 [2]: 321 nM | IC50 [3]: 3520 nM

COc1ccc(-c2cc(Cn3cnc4c(N)ncnc43)c(N3CCC[C@](N)([C@@H](O)C(F)F)C3)cn2)cc1F [Example 131, (R)-1-((R)-3-amino-1-(4-((6-amino-9H-purin-9-yl)methyl)-6-(3-fluoro-4-methoxyphenyl)pyridin-3-yl)piperidin-3-yl)-2,2-difluoroethan-1-ol]
IC50 [1]: 1 to 10 nM | IC50 [2]: 142 nM | IC50 [3]: 887 nM

Nc1ncnc2c1ncn2Cc1cc(-c2ccc(C(F)F)cc2F)ncc1N1CCC[C@](N)([C@@H](O)C(F)F)C1 [Example 132, (R)-1-((R)-3-amino-1-(4-((6-amino-9H-purin-9-yl)methyl)-6-(4-(difluoromethyl)-2-fluorophenyl)pyridin-3-yl)piperidin-3-yl)-2,2-difluoroethan-1-ol]
IC50 [1]: 1 to 10 nM | IC50 [2]: 264 nM | IC50 [3]: 1230 nM

Nc1ncnc2c1ncn2Cc1cc(-c2ccc(Cl)cc2F)ncc1N1CCC[C@](N)([C@@H](O)C(F)F)C1 [Example 133, (R)-1-((R)-3-amino-1-(4-((6-amino-9H-purin-9-yl)methyl)-6-(4-chloro-2-fluorophenyl)pyridin-3-yl)piperidin-3-yl)-2,2-difluoroethan-1-ol]
IC50 [1]: 10 to 1000 nM | IC50 [2]: 177 nM | IC50 [3]: 1610 nM

Nc1ncnc2c1ncn2Cc1cc(-c2cc(F)c(C(F)F)cc2F)ncc1N1CCC[C@](N)([C@@H](O)C(F)F)C1 [Example 134, (R)-1-((R)-3-amino-1-(4-((6-amino-9H-purin-9-yl)methyl)-6-(4-(difluoromethyl)-2,5-difluorophenyl)pyridin-3-yl)piperidin-3-yl)-2,2-difluoroethan-1-ol]
IC50 [1]: 10 to 1000 nM | IC50 [2]: 601 nM | IC50 [3]: 830 nM

Nc1ncnc2c1ncn2Cc1cc(-c2ccc(OC(F)F)cc2F)ncc1N1CCC[C@](N)([C@@H](O)C(F)F)C1 [Example 138, (R)-1-((R)-3-amino-1-(4-((6-amino-9H-purin-9-yl)methyl)-6-(4-(difluoromethoxy)-2-fluorophenyl)pyridin-3-yl)piperidin-3-yl)-2,2-difluoroethan-1-ol]
IC50 [1]: 10 to 1000 nM | IC50 [2]: 132 nM | IC50 [3]: 1570 nM

Nc1ncnc2c1ncn2Cc1cc(-c2ccc(F)c(Cl)c2)ncc1N1CCC[C@](N)([C@H](O)C(F)F)C1 [Example 139, (S)-1-((R)-3-amino-1-(4-((6-amino-9H-purin-9-yl)methyl)-6-(3-chloro-4-fluorophenyl)pyridin-3-yl)piperidin-3-yl)-2,2-difluoroethan-1-ol]
IC50 [1]: 10 to 1000 nM | IC50 [2]: 669 nM | IC50 [3]: 2840 nM

Nc1ncnc2c1ncn2Cc1cc(-c2ccc(C(F)(F)F)cc2F)ncc1N1CCC[C@](N)([C@@H](O)C(F)F)C1 [Example 141, (R)-1-((R)-3-amino-1-(4-((6-amino-9H-purin-9-yl)methyl)-6-(2-fluoro-4-(trifluoromethyl)phenyl)pyridin-3-yl)piperidin-3-yl)-2,2-difluoroethan-1-ol]
IC50 [1]: 10 to 1000 nM | IC50 [2]: 1150 nM | IC50 [3]: 7700 nM

Nc1ncnc2c1ncn2Cc1cc(-c2cc(F)c(O)cc2F)ncc1N1CCC[C@](N)([C@H](O)C(F)F)C1 [Example 144, 4-(5-((R)-3-amino-3-((S)-2,2-difluoro-1-hydroxyethyl)piperidin-1-yl)-4-((6-amino-9H-purin-9-yl)methyl)pyridin-2-yl)-2,5-difluorophenol]
IC50 [1]: 10 to 1000 nM | IC50 [2]: 2580 nM | IC50 [3]: 10400 nM

Nc1ncnc2c1ncn2Cc1cc(C2CCCCC2)ncc1N1CCC[C@](N)([C@H](O)C(F)F)C1 [Example 145, (S)-1-((R)-3-amino-1-(4-((6-amino-9H-purin-9-yl)methyl)-6-cyclohexylpyridin-3-yl)piperidin-3-yl)-2,2-difluoroethan-1-ol]
IC50 [1]: 10 to 1000 nM | IC50 [2]: 990 nM | IC50 [3]: 8110 nM

Nc1ncnc2c1ncn2Cc1cc(-c2ccc(F)cc2F)ncc1N1CCC[C@](N)([C@@H](O)C(F)F)C1 [Example 147, (R)-1-((R)-3-amino-1-(4-((6-amino-9H-purin-9-yl)methyl)-6-(2,4-difluorophenyl)pyridin-3-yl)piperidin-3-yl)-2,2-difluoroethan-1-ol]
IC50 [1]: 10 to 1000 nM | IC50 [2]: 44 nM | IC50 [3]: 2490 nM

Nc1ncnc2c1ncn2Cc1cc(-c2ccc(Cl)cc2F)ncc1N1CCC[C@](N)([C@H](O)C(F)F)C1 [Example 148, (S)-1-((R)-3-amino-1-(4-((6-amino-9H-purin-9-yl)methyl)-6-(4-chloro-2-fluorophenyl)pyridin-3-yl)piperidin-3-yl)-2,2-difluoroethan-1-ol]
IC50 [1]: 10 to 1000 nM | IC50 [2]: 671 nM | IC50 [3]: 2160 nM

Nc1ncnc2c1ncn2Cc1cc(-c2cc(F)c(OC(F)F)cc2F)ncc1N1CCC[C@](N)([C@@H](O)C(F)F)C1 [Example 150, (R)-1-((R)-3-amino-1-(4-((6-amino-9H-purin-9-yl)methyl)-6-(4-(difluoromethoxy)-2,5-difluorophenyl)pyridin-3-yl)piperidin-3-yl)-2,2-difluoroethan-1-ol]
IC50 [1]: 10 to 1000 nM | IC50 [2]: 307 nM | IC50 [3]: 1670 nM

Nc1ncnc2c1ncn2Cc1cc(-c2ccc(F)cc2F)ncc1N1CCC[C@](N)([C@H](O)C(F)F)C1 [Example 151, (S)-1-((R)-3-amino-1-(4-((6-amino-9H-purin-9-yl)methyl)-6-(2,4-difluorophenyl)pyridin-3-yl)piperidin-3-yl)-2,2-difluoroethan-1-ol]
IC50 [1]: 10 to 1000 nM | IC50 [2]: 842 nM | IC50 [3]: 4190 nM

Nc1ncnc2c1ncn2Cc1cc(-c2ccc(Cl)c(F)c2)ncc1N1CCC[C@](N)([C@H](O)C(F)F)C1 [Example 152, (S)-1-((R)-3-amino-1-(4-((6-amino-9H-purin-9-yl)methyl)-6-(4-chloro-3-fluorophenyl)pyridin-3-yl)piperidin-3-yl)-2,2-difluoroethan-1-ol]
IC50 [1]: 10 to 1000 nM | IC50 [2]: 68.7 nM | IC50 [3]: 1770 nM

Nc1ncnc2c1ncn2Cc1cc(-c2ccc(OC(F)F)cc2F)ncc1N1CCC[C@](N)([C@H](O)C(F)F)C1 [Example 153, (S)-1-((R)-3-amino-1-(4-((6-amino-9H-purin-9-yl)methyl)-6-(4-(difluoromethoxy)-2-fluorophenyl)pyridin-3-yl)piperidin-3-yl)-2,2-difluoroethan-1-ol]
IC50 [1]: 10 to 1000 nM | IC50 [2]: 217 nM | IC50 [3]: 5080 nM

Nc1ncnc2c1ncn2Cc1cc(-c2cc(F)cc(C(F)F)c2F)ncc1N1CCC[C@](N)([C@@H](O)C(F)F)C1 [Example 154, (R)-1-((R)-3-amino-1-(4-((6-amino-9H-purin-9-yl)methyl)-6-(3-(difluoromethyl)-2,5-difluorophenyl)pyridin-3-yl)piperidin-3-yl)-2,2-difluoroethan-1-ol]
IC50 [1]: 10 to 1000 nM | IC50 [2]: 2930 nM | IC50 [3]: 9110 nM

Nc1ncnc2c1ncn2Cc1cc(-c2ccc(F)cn2)ncc1N1CCC[C@](N)([C@@H](O)C(F)F)C1 [Example 155, (R)-1-((R)-3-amino-1-(4-((6-amino-9H-purin-9-yl)methyl)-5′-fluoro-[2,2′-bipyridin]-5-yl)piperidin-3-yl)-2,2-difluoroethan-1-ol]
IC50 [1]: 10 to 1000 nM | IC50 [2]: 1170 nM | IC50 [3]: 16400 nM
